Measurements taken from patent US10273206B2 (ALLERGAN, INC., priority 2014, dated 2019).
Structures can show the parent of a compound that is named as a salt. Where two headings read alike, the source gives them in different places.

Tests used:
[1] = base (source of basic counter ion) used in salt screening, Table 1; cited from earlier work
[2] = Dissolution rate compared with the free acid; assay type: physicochemical; details: compared with bimatoprost free acid
[3] = pH-solubility determination (shake flask in aqueous media, HPLC quantitation); assay type: physicochemical; details: thermodynamic from solid
Method: The pH was checked, and adjusted if necessary, at intervals of 1, 5, 23, 28 and 47 hrs. An aliquot of sample was taken off at 24 hrs and the final pH was recorded. The suspension was then filtered through a glass fiber C filter. The filtrate was then diluted by an appropriate factor. This was repeated at 48 hours. Quantitation was by HPLC with reference to 6 standard solutions of concentrations between 0.3873-0.0008 mg/ml dissolved in 66:21:13 H2O:ACN:MeOH.

[4] = Physical stability on storage at controlled temperature/relative humidity; assay type: physicochemical
[5] = Gravimetric vapor sorption (GVS) analysis; assay type: physicochemical
Method: The salt was then crystallized from ethyl acetate as follows. The lyophilized solid sample in ethyl acetate was subjected to initial heat/cool cycles using an Anachem React-Array. The sample was then subjected to three heat/cool cycles by using the following procedure: heating to 50° C. at 5° C./min, holding at 50° C. for 30 minutes, followed by cooling to 0° C. at 0.1° C./min, holding at 0° C. for 1 hour under constant stirring at 500 rpm. The recovered material (crystalline form 1) was analyzed by XRPD (FIG. 6), ^1H NMR, thermal analysis, and gravimetric vapor sorption (GVS) analysis, as summarized in Table 2.
Without being bound by any particular theory, the significant uptake of moisture may be a result of the large specific surface area of the material. On desorption, the adsorbed water was rapidly lost with no equilibrium established. At the end of the gravimetric vapor sorption (GVS) cycle, at 40% RH, the overall sample mass increased by 5 wt %.

[6] = Measured pKa of bimatoprost acid, used for the Henderson-Hasselbalch fit; assay type: physicochemical; details: measured pKa used to fit solubility vs. pH plot

Compound: NCCN [Ethylenediamine]
- pKa [1]: 10.09

Compound: O=C(O)CCC/C=C\C[C@@H]1[C@@H](/C=C/[C@@H](O)CCc2ccccc2)[C@H](O)C[C@@H]1O [tromethamine salt of (Z)-7-[3,5-Dihydroxy-2-((E)-3-hydroxy-5-phenyl-pent-1-enyl)-cyclopentyl]-hept-5-enoic acid]
- dissolution rate relative to the free acid [2]: faster dissolution rate than the free acid
- solubility thermodynamic ([3]; 25 °C, aqueous buffer, at pH 6.8, read-out: solubility): ~250 mg/mL
- solubility at 48 h ([3]; 25 °C, pH 2, aqueous buffer, pH 2 (solubility of the free acid), 25° C., FIG. 5, read-out: intrinsic solubility): 1.39 mg/mL
- solubility at 48 h ([3]; 25 °C, pH 6.5, aqueous buffer, at pH 6.5, see FIG. 5, read-out: solubility): ≥ 250 mg/mL
- solubility at 48 h ([3]; 25 °C, pH 6.5, aqueous buffer, pH above 6.5, 25° C., FIG. 5, read-out: solubility of the salt): > 250 mg/mL
- solubility thermodynamic ([3]; pH 6.5, aqueous buffer, pH above 6.5, 25° C., FIG. 5, read-out: solubility of the salt): ≥ 250 mg/mL
- physically stable for (time) ([4]; 25° C./60% relative humidity (RH), open container closure): > 3 months
- physically stable for (time) ([4]; 40° C./75% RH, closed container closure): > 3 months
- GVS analysis result ([5]; 90% RH): 90% RH, no deliquescence, no hydrate
- overall sample mass increase at the end of the GVS cycle ([5]; at 40% RH, end of GVS cycle): 5 wt %
- XRPD re-analysis of the sample post GVS analysis (form change) ([5]; post GVS analysis, FIG. 3): no change in the crystalline Form 1
- moisture uptake behaviour on storage ([5]; stored at or above 80% RH): behaves hygroscopically, with significant moisture uptake observed

Compound: C[N+](C)(C)CCO [Choline]
- pKa [1]: 11.00

Compound: CCNC[C@H](O)[C@@H](O)[C@H](O)[C@H](O)CO [N-ethyl-glucamine]
- pKa [1]: 8.03

Compound: CCN(CC)CCO [2-diethylamino ethanol]
- pKa [1]: 9.58

Compound: NC(=O)NCCC[C@H](N)C(=O)O [Citrulline]
- pKa [1]: 7.00

Compound: O=C(O)CCC/C=C\C[C@@H]1[C@@H](/C=C/[C@@H](O)CCc2ccccc2)[C@H](O)C[C@@H]1O [bimatoprost acid, (Z)-7-[3,5-Dihydroxy-2-((E)-3-hydroxy-5-phenyl-pent-1-enyl)-cyclopentyl]-hept-5-enoic acid]
- pKa [6]: 4.76

Compound: OCCN1CCOCC1 [Hydroxyethyl-morpholine]
- pKa [1]: 7.39
